Test results from patent US7572818B2, “2-pyridylethylbenzamide derivative” (Bayer Cropscience S.A., priority 2002, dated 2009).

Key:
Conditions in all cases: preventive spray 24 h before inoculation
Botrytis cinerea = assay: In vivo test of activity on Botrytis cinerea on cucumber
Procedure: In Vivo Test of Activity on Botrytis cinerea on Cucumber
(§1) An aqueous solution of the active material to be tested is prepared at a concentration of 2 g/l by grinding in solution 1 or solution 2:
(§2) • Water • Tween 80 diluted to 10% in water: 5 μl/mg of active material • Clay in a sufficient amount for active material+clay to equal 100 mg; Solution 2
(§3) Concentrated solution containing surfactants and adjuvants conventionally used: 200 μl/mg of active material.
(§4) The aqueous solution is diluted with water so as to obtain the desired concentration.
Cucumbers of the Marketer variety are sown in a 50/50 pozzolan/peat substrate and maintained at 18-22° C. The treatment is carried out by spraying the aqueous suspension. The untreated control plants are sprayed with water.
24 hours after treatment, the plants are inoculated by spraying a solution of Botrytis cinerea spores (150 000 spores/ml) originating from a 15-day culture.
The cucumber plants are then maintained at 11-15° C. in a humid atmosphere. The effectiveness of the products is evaluated relative to the control plants after seven to eight days of incubation.
(§5) The effectiveness of the molecules is estimated, at 500 g/ha, 250 g/ha or 330 ppm, by the percentage of control relative to untreated plants. Under these conditions, good effectiveness is defined as more than 80% effectiveness. Average effectiveness is defined as an effectiveness between 50 and 80%. Poor effectiveness is defined as an effectiveness between 10 and 50% and zero effectiveness is defined as less than 10% effectiveness.

Pyrenophora teres = assay: In vivo test of activity on Pyrenophora teres (barley net blotch)
Procedure: In Vivo Test of Activity on Pyrenophora teres (Barley Net Blotch)
as §1, §2, §3, §4
Barley plants of the Express variety are sown in a 50/50 pozzolan/peat substrate and maintained at 12° C. The treatment is carried out at the 1-leaf stage (10 cm) by spraying the aqueous suspension. The untreated control plants are sprayed with water.
24 hours after treatment, the plants are inoculated by spraying a solution of Pyrenophora teres spores (10 000 spores/ml) originating from a 10-day culture.
The barley plants are then maintained at 18° C. in a humid atmosphere. The effectiveness of the products is evaluated relative to the control plants after eight to fifteen days of incubation.
as §5

Alternaria brassicae = assay: In vivo test of activity on Alternaria brassicae (crucifer black spot) on radish
Procedure: In Vivo Test of Activity on Alternaria brassicae (Crucifer Black Spot)
as §1, §2, §3, §4
Radishes of the Pernot variety are sown in a 50/50 pozzolan/peat substrate and maintained at 18-22° C. The treatment is carried out by spraying the aqueous suspension. The untreated control plants are sprayed with water. 24 hours after treatment, the plants are inoculated by spraying a solution of Alternaria brassicae spores (40 000 spores/ml) originating from a 12-day culture.
The radish plants are then maintained at 18-20° C. in a humid atmosphere. The effectiveness of the products is evaluated relative to the control plants after seven to eight days of incubation.
as §5

[1] = Botrytis cinerea, topical, 250 g/ha, read-out: effectiveness (percentage of control relative to untreated plants)

Compound: CCNC(=O)C(Cc1ncc(C(F)(F)F)cc1Cl)NC(=O)c1ccc(Cl)cc1 (stereo not drawn) [compound 306, N-{1-ethylcarbamoyl-2-[3-chloro-5-(trifluoromethyl)-2-pyridinyl]ethyl}-4-chlorobenzamide, reference compound]
- pest or weed control at 250 g/ha (Botrytis cinerea; [1]): < 10%

Compound: O=C(NCCc1ncc(C(F)(F)F)cc1Cl)c1ccccc1Br [Compound A-46]
- effectiveness (percentage of control relative to untreated plants) (Pyrenophora teres; 250 g/ha): good to average
- effectiveness (percentage of control relative to untreated plants) (Pyrenophora teres; 330 ppm): good to average
- effectiveness (percentage of control relative to untreated plants) (Alternaria brassicae; 250 g/ha): good to average
- effectiveness (percentage of control relative to untreated plants) (Alternaria brassicae; 330 ppm): good to average
- effectiveness (percentage of control relative to untreated plants) (Botrytis cinerea; 250 g/ha): good to average
- effectiveness (percentage of control relative to untreated plants) (Botrytis cinerea; 330 ppm): good to average

Compound: O=C(NCCc1ncc(C(F)(F)F)cc1Cl)c1c(F)cccc1C(F)(F)F [Compound A-173]
- effectiveness (percentage of control relative to untreated plants) (Pyrenophora teres; 330 ppm): good to average
- effectiveness (percentage of control relative to untreated plants) (Alternaria brassicae; 250 g/ha): good to average
- effectiveness (percentage of control relative to untreated plants) (Alternaria brassicae; 330 ppm): good to average
- effectiveness (percentage of control relative to untreated plants) (Botrytis cinerea; 330 ppm): good to average

Compound: CCNC(=O)C(Cc1ncc(C(F)(F)F)cc1Cl)NC(=O)c1ccccc1Br (stereo not drawn) [compound 310, N-{1-ethylcarbamoyl-2-[3-chloro-5-(trifluoromethyl)-2-pyridinyl]ethyl}-2-bromobenzamide, reference compound]
- pest or weed control at 250 g/ha (Botrytis cinerea; [1]): < 10%

Compound: O=C(NCCc1c(Cl)cc(C(F)(F)F)c[n+]1[O-])c1ccccc1C(F)(F)F [Compound B-1]
- effectiveness (percentage of control relative to untreated plants) (Pyrenophora teres; 330 ppm): good to average
- effectiveness (percentage of control relative to untreated plants) (Alternaria brassicae; 330 ppm): good to average

Compound: Cc1ccc(C(=O)NCCc2ncc(C(F)(F)F)cc2Cl)c(C)c1 [Compound A-61]
- effectiveness (percentage of control relative to untreated plants) (Pyrenophora teres; 330 ppm): good to average
- effectiveness (percentage of control relative to untreated plants) (Alternaria brassicae; 330 ppm): good to average

Compound: CSc1cc(F)ccc1C(=O)NCCc1ncc(C(F)(F)F)cc1Cl [Compound A-140]
- effectiveness (percentage of control relative to untreated plants) (Pyrenophora teres; 330 ppm): good to average
- effectiveness (percentage of control relative to untreated plants) (Alternaria brassicae; 330 ppm): good to average

Compound: CCNC(=O)C(Cc1ncc(C(F)(F)F)cc1Cl)NC(=O)c1ccccc1 (stereo not drawn) [compound 304, N-{1-ethylcarbamoyl-2-[3-chloro-5-(trifluoromethyl)-2-pyridinyl]ethyl}-benzamide, reference compound]
- pest or weed control at 250 g/ha (Botrytis cinerea; [1]): < 10%

Compound: CNC(=O)C(Cc1ncc(C(F)(F)F)cc1Cl)NC(=O)c1ccc(OC)cc1 (stereo not drawn) [compound 315, N-{1-methylcarbamoyl-2-[3-chloro-5-(trifluoromethyl)-2-pyridinyl]ethyl}-4-methoxybenzamide, reference compound]
- pest or weed control at 250 g/ha (Botrytis cinerea; [1]): < 10%

Compound: O=C(NCCc1ncc(C(F)(F)F)cc1Cl)c1ccc(Cl)c(F)c1Cl [Compound A-125]
- effectiveness (percentage of control relative to untreated plants) (Pyrenophora teres; 330 ppm): good to average
- effectiveness (percentage of control relative to untreated plants) (Alternaria brassicae; 330 ppm): good to average

Compound: N#Cc1ccccc1C(=O)NCCc1ncc(C(F)(F)F)cc1Cl [Compound A-170]
- effectiveness (percentage of control relative to untreated plants) (Alternaria brassicae; 330 ppm): good to average
- effectiveness (percentage of control relative to untreated plants) (Botrytis cinerea; 330 ppm): good to average

Compound: O=C(NCCc1ncc(C(F)(F)F)cc1Cl)c1cc(F)ccc1C(F)(F)F [Compound A-172]
- effectiveness (percentage of control relative to untreated plants) (Botrytis cinerea; 330 ppm): good to average

Compound: CSc1ccccc1C(=O)NCCc1ncc(C(F)(F)F)cc1Cl [Compound A-167]
- effectiveness (percentage of control relative to untreated plants) (Pyrenophora teres; 330 ppm): good to average
- effectiveness (percentage of control relative to untreated plants) (Alternaria brassicae; 330 ppm): good to average

Compound: COc1ccc(C(=O)NCCc2ncc(C(F)(F)F)cc2Cl)c(OC)c1 [Compound A-83]
- effectiveness (percentage of control relative to untreated plants) (Pyrenophora teres; 330 ppm): good to average
- effectiveness (percentage of control relative to untreated plants) (Alternaria brassicae; 330 ppm): good to average

Compound: CNC(=O)C(Cc1ncc(C(F)(F)F)cc1Cl)NC(=O)c1ccc(-c2ccccc2)cc1 (stereo not drawn) [compound 316, N-{1-methylcarbamoyl-2-[3-chloro-5-(trifluoromethyl)-2-pyridinyl]ethyl}-4-phenylbenzamide, reference compound]
- effectiveness (percentage of control relative to untreated plants) (Alternaria brassicae; 250 g/ha): poor (Poor effectiveness is defined as an effectiveness between 10 and 50%)
- pest or weed control at 250 g/ha (Botrytis cinerea; [1]): < 10%

Compound: CNC(=O)C(Cc1ncc(C(F)(F)F)cc1Cl)NC(=O)c1ccccc1 (stereo not drawn) [compound 314, N-{1-methylcarbamoyl-2-[3-chloro-5-(trifluoromethyl)2-pyridinyl]ethyl}-benzamide, reference compound]
- pest or weed control at 250 g/ha (Botrytis cinerea; [1]): < 10%

Compound: O=C(NCCc1ncc(C(F)(F)F)cc1Cl)c1ccc([N+](=O)[O-])cc1Cl [Compound A-96]
- effectiveness (percentage of control relative to untreated plants) (Pyrenophora teres; 330 ppm): good to average
- effectiveness (percentage of control relative to untreated plants) (Alternaria brassicae; 330 ppm): good to average

Compound: CCNC(=O)C(Cc1ncc(C(F)(F)F)cc1Cl)NC(=O)c1cccc([N+](=O)[O-])c1 (stereo not drawn) [compound 307, N-{1-ethylcarbamoyl-2-[3-chloro-5-(trifluoromethyl)-2-pyridinyl]ethyl}-3-nitrobenzamide, reference compound]
- effectiveness (percentage of control relative to untreated plants) (Alternaria brassicae; 250 g/ha): zero (zero effectiveness is defined as less than 10% effectiveness)
- pest or weed control at 250 g/ha (Botrytis cinerea; [1]): < 10%

Compound: O=C(NCCc1ncc(C(F)(F)F)cc1Cl)c1cc(F)ccc1Br [Compound A-175]
- effectiveness (percentage of control relative to untreated plants) (Alternaria brassicae; 330 ppm): good to average
- effectiveness (percentage of control relative to untreated plants) (Botrytis cinerea; 330 ppm): good to average

Compound: O=C(NCCc1ncc(C(F)(F)F)cc1Cl)c1ccccc1OC(F)(F)F [Compound A-89]
- effectiveness (percentage of control relative to untreated plants) (Pyrenophora teres; 330 ppm): good to average
- effectiveness (percentage of control relative to untreated plants) (Alternaria brassicae; 330 ppm): good to average

Compound: CS(=O)(=O)c1cc(Br)ccc1C(=O)NCCc1ncc(C(F)(F)F)cc1Cl [Compound A-133]
- effectiveness (percentage of control relative to untreated plants) (Pyrenophora teres; 330 ppm): good to average
- effectiveness (percentage of control relative to untreated plants) (Alternaria brassicae; 330 ppm): good to average

Compound: Cc1cc(F)ccc1C(=O)NCCc1ncc(C(F)(F)F)cc1Cl [Compound A-117]
- effectiveness (percentage of control relative to untreated plants) (Pyrenophora teres; 330 ppm): good to average
- effectiveness (percentage of control relative to untreated plants) (Alternaria brassicae; 330 ppm): good to average

Compound: Cc1ccc(Br)c(C(=O)NCCc2ncc(C(F)(F)F)cc2Cl)c1 [Compound A-134]
- effectiveness (percentage of control relative to untreated plants) (Pyrenophora teres; 330 ppm): good to average
- effectiveness (percentage of control relative to untreated plants) (Alternaria brassicae; 330 ppm): good to average

Compound: O=C(NCCc1ncc(C(F)(F)F)cc1Cl)c1ccc(Cl)cc1Br [Compound A-110]
- effectiveness (percentage of control relative to untreated plants) (Alternaria brassicae; 330 ppm): good to average

Compound: O=C(NCCc1ncc(C(F)(F)F)cc1Cl)c1ccccc1O [Compound A-52]
- effectiveness (percentage of control relative to untreated plants) (Alternaria brassicae; 330 ppm): good to average

Compound: Cc1ccc(F)c(C(=O)NCCc2ncc(C(F)(F)F)cc2Cl)c1Cl [Compound A-124]
- effectiveness (percentage of control relative to untreated plants) (Alternaria brassicae; 330 ppm): good to average

Compound: O=C(NCCc1ncc(C(F)(F)F)cc1Cl)c1c(Cl)cccc1Cl [N-{2-[3-chloro-5-(trifluoromethyl)-2-pyridinyl]-ethyl}-2,6-dichlorobenzamide, reference compound]
- effectiveness (percentage of control relative to untreated plants) (Alternaria brassicae; 250 g/ha): zero (zero effectiveness is defined as less than 10% effectiveness)
- effectiveness (percentage of control relative to untreated plants) (Alternaria brassicae; 330 ppm): poor (Poor effectiveness is defined as an effectiveness between 10 and 50%)
- pest or weed control at 250 g/ha (Botrytis cinerea; [1]): < 10%
- pest or weed control at 330 ppm (Botrytis cinerea; Botrytis cinerea, topical, 330 ppm, read-out: effectiveness (percentage of control relative to untreated plants)): < 10%

Compound: Cc1cccc(C(=O)NCCc2ncc(C(F)(F)F)cc2Cl)c1C [Compound A-60]
- effectiveness (percentage of control relative to untreated plants) (Alternaria brassicae; 330 ppm): good to average

Compound: COc1cc(Cl)ccc1C(=O)NCCc1ncc(C(F)(F)F)cc1Cl [Compound A-87]
- effectiveness (percentage of control relative to untreated plants) (Pyrenophora teres; 330 ppm): good to average
- effectiveness (percentage of control relative to untreated plants) (Alternaria brassicae; 330 ppm): good to average

Compound: CSc1cc(Cl)ccc1C(=O)NCCc1ncc(C(F)(F)F)cc1Cl [Compound A-127]
- effectiveness (percentage of control relative to untreated plants) (Alternaria brassicae; 330 ppm): good to average

Compound: COc1cc([N+](=O)[O-])ccc1C(=O)NCCc1ncc(C(F)(F)F)cc1Cl [Compound A-171]
- effectiveness (percentage of control relative to untreated plants) (Alternaria brassicae; 330 ppm): good to average

Compound: O=C(NCCc1ncc(C(F)(F)F)cc1Cl)c1ccc(I)c(Br)c1 [Compound A-158]
- effectiveness (percentage of control relative to untreated plants) (Alternaria brassicae; 330 ppm): good to average

Compound: CC(C)c1c(Br)cccc1C(=O)NCCc1ncc(C(F)(F)F)cc1Cl [Compound A-151]
- effectiveness (percentage of control relative to untreated plants) (Alternaria brassicae; 330 ppm): good to average
